Experimental data taken from PubChem BioAssay AID1259407 (Chemical Carcinogenesis Research Information System (CCRIS), 2018).
Activity calls are given as the source filed them. How the calls were made is not given here.

System: CCRIS mutagenicity, Ames/micronucleus/aberration tests
Experiment: CCRIS mutagenicity studies
[1] = Test System: MOUSE LYMPHOMA, Strain/Indicator: L5178Y (TK+/TK-), Metabolic Activation: NONE, Method: SUSPENSION/PLATE
[2] = Test System: AMES SALMONELLA TYPHIMURIUM, Strain/Indicator: TA100, Metabolic Activation: NONE, Method: STANDARD PLATE
[3] = Test System: AMES SALMONELLA TYPHIMURIUM, Strain/Indicator: TA100, Metabolic Activation: RAT, LIVER, S-9, KANECLOR 500, Method: STANDARD PLATE
[4] = Test System: AMES SALMONELLA TYPHIMURIUM, Strain/Indicator: TA98, Metabolic Activation: NONE, Method: STANDARD PLATE
[5] = Test System: AMES SALMONELLA TYPHIMURIUM, Strain/Indicator: TA98, Metabolic Activation: RAT, LIVER, S-9, AROCLOR 1254, Method: STANDARD PLATE
[6] = Test System: AMES SALMONELLA TYPHIMURIUM, Strain/Indicator: TA100, Metabolic Activation: RAT, LIVER, S-9, AROCLOR 1254, Method: STANDARD PLATE
[7] = Test System: AMES SALMONELLA TYPHIMURIUM, Strain/Indicator: TA98, Metabolic Activation: NONE, Method: PREINCUBATION
[8] = Test System: AMES SALMONELLA TYPHIMURIUM, Strain/Indicator: TA100, Metabolic Activation: NONE, Method: PREINCUBATION

C=C(C)C(=O)OCCOCCOCCOCCOC(=O)C(=C)C
mutagenic call [1]: active; positive

CC(=O)N(O)c1ccc(Oc2ccc(Cl)cc2)cc1
mutagenic call (Test System: AMES SALMONELLA TYPHIMURIUM, Strain/Indicator: TA100, Metabolic Activation: GUINEA PIG, LIVER, MICROSOMAL FRACTION, PCB): active; positive | mutagenic call (Test System: AMES SALMONELLA TYPHIMURIUM, Strain/Indicator: TA100, Metabolic Activation: GUINEA PIG, LIVER, S-9, PCB): active; positive | mutagenic call (Test System: AMES SALMONELLA TYPHIMURIUM, Strain/Indicator: TA100, Metabolic Activation: GUINEA PIG, LIVER, S-105, PCB): active; positive | mutagenic call [2]: inactive; negative | mutagenic call [3]: active; positive

O=CC1C=COC=C1
mutagenic call [4]: inactive; negative | mutagenic call (Test System: AMES SALMONELLA TYPHIMURIUM, Strain/Indicator: TA98, Metabolic Activation: RAT, LIVER, S-9, PHENOBARBITAL, Method: STANDARD PLATE): inactive; negative | mutagenic call [2]: inactive; negative | mutagenic call (Test System: AMES SALMONELLA TYPHIMURIUM, Strain/Indicator: TA100, Metabolic Activation: RAT, LIVER, S-9, PHENOBARBITAL, Method: STANDARD PLATE): inactive; negative | mutagenic call (Test System: AMES SALMONELLA TYPHIMURIUM, Strain/Indicator: TM677/8-AZAGUANINE, Metabolic Activation: NONE, Method: STANDARD PLATE): inactive; negative

Cn1c(C(F)(F)F)cc2c(N3CCCC3)nc(N3CCCC3)nc21
mutagenic call (Test System: UDS RAT HEPATOCYTES, Strain/Indicator: THY-INCORP, Metabolic Activation: NONE, Method: AUTORADIOGRAPHY): inactive; negative

CC(=O)n1ncc(Cl)c(Cl)c1=O
mutagenic call [4]: inactive; negative | mutagenic call [5]: inactive; negative | mutagenic call [2]: inactive; negative | mutagenic call [6]: inactive; negative | mutagenic call (Test System: AMES SALMONELLA TYPHIMURIUM, Strain/Indicator: TA1535, Metabolic Activation: NONE, Method: STANDARD PLATE): inactive; negative | mutagenic call (Test System: AMES SALMONELLA TYPHIMURIUM, Strain/Indicator: TA1535, Metabolic Activation: RAT, LIVER, S-9, AROCLOR 1254, Method: STANDARD PLATE): inactive; negative | mutagenic call (Test System: AMES SALMONELLA TYPHIMURIUM, Strain/Indicator: TA1537, Metabolic Activation: NONE, Method: STANDARD PLATE): inactive; negative | mutagenic call (Test System: AMES SALMONELLA TYPHIMURIUM, Strain/Indicator: TA1537, Metabolic Activation: RAT, LIVER, S-9, AROCLOR 1254, Method: STANDARD PLATE): inactive; negative

CC(=O)Nc1ccc(Oc2ccc(Cl)cc2)cc1
mutagenic call [2]: inactive; negative | mutagenic call [3]: active; positive

CN(C)C=O
mutagenic call (Test System: AMES SALMONELLA TYPHIMURIUM, Strain/Indicator: TA97, Metabolic Activation: NONE, Method: STANDARD PLATE): inactive; negative | mutagenic call (Test System: AMES SALMONELLA TYPHIMURIUM, Strain/Indicator: TA97, Metabolic Activation: RAT, LIVER, S-9, AROCLOR 1254, Method: STANDARD PLATE): inactive; negative | mutagenic call [4]: inactive; negative | mutagenic call [5]: inactive; negative | mutagenic call [2]: inactive; negative | mutagenic call [6]: inactive; negative | mutagenic call (Test System: Ames Salmonella typhimurium, Strain/Indicator: TA98, Metabolic Activation: None, Method: Gas exposure method): inactive; negative | mutagenic call (Test System: Ames Salmonella typhimurium, Strain/Indicator: TA98, Metabolic Activation: Rat, Liver, S9, Sodium phenobarbital and 5,6-benzoflavone (10%), Method: Gas exposure method): inactive; negative | mutagenic call (Test System: Ames Salmonella typhimurium, Strain/Indicator: TA100, Metabolic Activation: None, Method: Gas exposure method): inactive; negative | mutagenic call (Test System: Ames Salmonella typhimurium, Strain/Indicator: TA100, Metabolic Activation: Rat, Liver, S9, Sodium phenobarbital and 5,6-benzoflavone (10%), Method: Gas exposure method): inactive; negative | mutagenic call (Test System: Ames Salmonella typhimurium, Strain/Indicator: TA1535, Metabolic Activation: None, Method: Gas exposure method): inactive; negative | mutagenic call (Test System: Ames Salmonella typhimurium, Strain/Indicator: TA1535, Metabolic Activation: Rat, Liver, S9, Sodium phenobarbital and 5,6-benzoflavone (10%), Method: Gas exposure method): inactive; negative | mutagenic call (Test System: Ames Salmonella typhimurium, Strain/Indicator: TA1537, Metabolic Activation: None, Method: Gas exposure method): inactive; negative | mutagenic call (Test System: Ames Salmonella typhimurium, Strain/Indicator: TA1537, Metabolic Activation: Rat, Liver, S9, Sodium phenobarbital and 5,6-benzoflavone (10%), Method: Gas exposure method): inactive; negative | mutagenic call (Test System: E. coli, Strain/Indicator: WP2uvrA/pKM101, Metabolic Activation: None, Method: Gas exposure method): inactive; negative | mutagenic call (Test System: E. coli, Strain/Indicator: WP2uvrA/pKM101, Metabolic Activation: Rat, Liver, S9, Sodium phenobarbital and 5,6-benzoflavone (10%), Method: Gas exposure method): inactive; negative | mutagenic call [1]: inactive; negative | mutagenic call (Test System: MOUSE LYMPHOMA, Strain/Indicator: L5178Y (TK+/TK-), Metabolic Activation: RAT, LIVER, S-9, AROCLOR 1254, Method: SUSPENSION/PLATE): inactive; negative | mutagenic call (Test System: MOUSE LYMPHOMA, Strain/Indicator: L5178Y (TK+/TK-), Metabolic Activation: RAT, LIVER, S-9, Method: SUSPENSION/PLATE): inactive; negative

CN(C)Cc1ccccc1
mutagenic call [7]: inactive; negative | mutagenic call (Test System: AMES SALMONELLA TYPHIMURIUM, Strain/Indicator: TA98, Metabolic Activation: RAT, LIVER, S-9, PCB, Method: PREINCUBATION): inactive; negative | mutagenic call [8]: inactive; negative | mutagenic call (Test System: AMES SALMONELLA TYPHIMURIUM, Strain/Indicator: TA100, Metabolic Activation: RAT, LIVER, S-9, PCB, Method: PREINCUBATION): inactive; negative

CC(C)COS(=O)(=O)c1ccccc1
mutagenic call [4]: active; positive | mutagenic call (Test System: AMES SALMONELLA TYPHIMURIUM, Strain/Indicator: TA98, Metabolic Activation: RAT, LIVER, S-9, Method: STANDARD PLATE): active; positive | mutagenic call (Test System: AMES SALMONELLA TYPHIMURIUM, Strain/Indicator: TA100, Metabolic Activation: RAT, LIVER, S-9, Method: STANDARD PLATE): active; positive

Cc1ccc2cccnc2c1
mutagenic call (Test System: AMES SALMONELLA TYPHIMURIUM, Strain/Indicator: TA98, Metabolic Activation: HAMSTER, LIVER, S-9, AROCLOR 1254 (30%), Method: PREINCUBATION): active; positive | mutagenic call [7]: inactive; negative | mutagenic call (Test System: AMES SALMONELLA TYPHIMURIUM, Strain/Indicator: TA98, Metabolic Activation: RAT, LIVER, S-9, AROCLOR 1254 (30%), Method: PREINCUBATION): inactive; negative | mutagenic call (Test System: AMES SALMONELLA TYPHIMURIUM, Strain/Indicator: TA100, Metabolic Activation: HAMSTER, LIVER, S-9, AROCLOR 1254 (30%), Method: PREINCUBATION): active; positive | mutagenic call [8]: inactive; negative | mutagenic call (Test System: AMES SALMONELLA TYPHIMURIUM, Strain/Indicator: TA100, Metabolic Activation: RAT, LIVER, S-9, AROCLOR 1254 (30%), Method: PREINCUBATION): active; positive | mutagenic call (Test System: AMES SALMONELLA TYPHIMURIUM, Strain/Indicator: TA100, Metabolic Activation: RAT, LIVER, S-9, PHENOBARBITAL AND 5,6-BENZOFLAVONE, Method: PREINCUBATION): active; positive | mutagenic call (Test System: AMES SALMONELLA TYPHIMURIUM, Strain/Indicator: TA100, Metabolic Activation: RAT, LIVER, S-9, PHENOBARBITAL AND 5,6-NAPHTHOFLAVONE, Method: PREINCUBATION): active; positive | mutagenic call (Test System: AMES SALMONELLA TYPHIMURIUM, Strain/Indicator: TA100, Metabolic Activation: RAT, LIVER, S-9, Method: PREINCUBATION): active; positive
